The target of one assay is T1, gelatinase A (MMP-2) (Homo sapiens, UniProt P08253).
T1 sequence (P08253 110-660): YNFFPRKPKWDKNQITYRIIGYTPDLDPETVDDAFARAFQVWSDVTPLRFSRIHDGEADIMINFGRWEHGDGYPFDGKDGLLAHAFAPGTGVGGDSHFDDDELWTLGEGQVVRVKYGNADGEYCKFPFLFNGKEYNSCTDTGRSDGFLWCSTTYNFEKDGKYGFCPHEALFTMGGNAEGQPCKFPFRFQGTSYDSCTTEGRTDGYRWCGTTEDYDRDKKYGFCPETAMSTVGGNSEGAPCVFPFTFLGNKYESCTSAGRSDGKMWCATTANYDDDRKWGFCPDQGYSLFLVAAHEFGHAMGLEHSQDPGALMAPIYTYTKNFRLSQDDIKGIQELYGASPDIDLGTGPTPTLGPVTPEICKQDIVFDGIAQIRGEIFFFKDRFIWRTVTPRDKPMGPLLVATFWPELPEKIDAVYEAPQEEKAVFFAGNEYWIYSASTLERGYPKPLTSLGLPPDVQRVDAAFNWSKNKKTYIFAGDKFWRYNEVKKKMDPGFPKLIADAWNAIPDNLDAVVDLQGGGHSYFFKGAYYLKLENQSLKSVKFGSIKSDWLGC
Kind of assay: MMP-2 enzyme inhibition assay (coumarin-labelled peptide substrate). The assay is classed as biochemical. Particulars: read-out: IC50 MMP2. The procedure, abridged:
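Recombinant human MMP-2, APMA-activated if necessary, run as for the MMP-9 protocol: McaPLGLDpaAR substrate (8 μM working dilution) in 100 mM Tris-HCl pH 7.6, 100 mM NaCl, 10 mM CaCl2, 0.05% Brij 35; ten 3-fold concentrations (100 μM–5.1 nM) in duplicate, 2 h at 37° C. Fluorescence ex 320/em 405 nm, unstopped; IC50 from four-parameter fit.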

Another assay has as its target human ADAM17 (TACE) (Homo sapiens, UniProt P78536). Kind of assay: TACE enzyme inhibition assay. The class given is biochemical. The procedure, abridged:
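Recombinant human ADAM17 was run in 20 mM HEPES pH 7.5 with 0.05% Brij 35, using Mca/Dnp-TNF-alpha(−5 to +6) amide substrate (5 μM solution), for 1.5 h at room temperature. Fluorescence (ex 355/em 405 nm) was read unstopped over ten concentrations (100 μM–0.01 nM). IC50 came from a four-parameter fit, rounded to one significant figure.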

Chain of human ADAM17 (TACE) (P78536 215-824): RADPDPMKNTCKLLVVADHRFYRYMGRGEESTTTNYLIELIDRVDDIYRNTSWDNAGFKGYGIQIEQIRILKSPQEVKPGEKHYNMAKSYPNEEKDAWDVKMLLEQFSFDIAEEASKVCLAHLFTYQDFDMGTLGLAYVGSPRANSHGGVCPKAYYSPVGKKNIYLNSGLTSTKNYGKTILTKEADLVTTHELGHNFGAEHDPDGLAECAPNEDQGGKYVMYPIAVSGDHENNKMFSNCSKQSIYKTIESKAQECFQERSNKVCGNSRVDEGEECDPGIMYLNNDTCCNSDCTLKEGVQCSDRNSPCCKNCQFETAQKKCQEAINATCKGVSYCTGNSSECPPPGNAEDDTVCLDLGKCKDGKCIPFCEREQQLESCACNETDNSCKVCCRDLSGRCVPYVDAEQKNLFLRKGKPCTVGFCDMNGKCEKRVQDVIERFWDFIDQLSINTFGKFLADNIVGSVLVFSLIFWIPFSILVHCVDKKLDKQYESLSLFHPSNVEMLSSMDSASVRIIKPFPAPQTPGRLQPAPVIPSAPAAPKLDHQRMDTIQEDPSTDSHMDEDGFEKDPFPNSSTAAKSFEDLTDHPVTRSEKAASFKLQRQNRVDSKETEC

For `O=CN(O)C(CCC(F)(F)F)CS(=O)(=O)N1CCc2ccc(Cl)cc2C1` (stereo not drawn) [Example 76, N-(1-{[(7-chloro-3,4-dihydroisoquinolin-2(1H)-yl)-sulfonyl]methyl}-4,4,4-trifluorobutyl)-N-hydroxyformamide], the half-maximal inhibitory concentration (IC50) is 82 nM at gelatinase A (MMP-2) and 115 nM at human ADAM17 (TACE).
On to `O=CN(O)C(CS(=O)(=O)N1CCc2cc(Cl)c(Cl)cc2C1)C1CCCC1` (stereo not drawn) [Example 77, N-{1-cyclopentyl-2-[(6,7-dichloro-3,4-dihydroisoquinolin-2(1H)-yl)sulfonyl]ethyl}-N-hydroxyformamide], for which the IC50 on gelatinase A (MMP-2) stood at 31 nM; at human ADAM17 (TACE), 229 nM.
For `O=CN(O)C(CS(=O)(=O)N1CCc2ccc(-c3ccncc3)cc2C1)C1CCCC1` (stereo not drawn) [Example 79, N-{1-cyclopentyl-2-[(7-pyridin-4-yl-3,4-dihydroisoquinolin-2(1H)-yl)sulfonyl]ethyl}-N-hydroxyformamide], in that order: 67 nM and 587 nM.
Regarding `O=CN(O)C(CS(=O)(=O)N1Cc2ccc(F)cc2C1)C1CCCC1` (stereo not drawn) [Example 80, N-{1-cyclopentyl-2-[(5-fluoro-1,3-dihydro-2H-isoindol-2-yl)sulfonyl]ethyl}-N-hydroxyformamide], the IC50 is 474 nM on gelatinase A (MMP-2) and greater than 5000 nM against human ADAM17 (TACE).
For `CC(C)c1ccc2c(c1)CCN(S(=O)(=O)CC(C1CCCC1)N(O)C=O)C2` (stereo not drawn) [Example 81, N-{1-cyclopentyl-2-[(6-isopropyl-3,4-dihydroisoquinolin-2(1H)-yl)sulfonyl]ethyl}-N-hydroxyformamide], in that order: 63 nM and greater than 5000 nM.
For `O=CN(O)C(CS(=O)(=O)N1CCc2ccc(C(F)(F)F)cc2C1)C1CCCC1` (stereo not drawn) [Example 82, N-(1-cyclopentyl-2-{[7-(trifluoromethyl)-3,4-dihydro-isoquinolin-2(1H)-yl]sulfonyl}ethyl)-N-hydroxyformamide], in that order: 348 nM and greater than 5000 nM.
For `O=CN(O)C(CS(=O)(=O)N1CCc2ccc(C(F)(F)F)cc2C1)C1CC1` (stereo not drawn) [Example 83, N-(1-cyclopropyl-2-{[7-(trifluoromethyl)-3,4-dihydroisoquinolin-2(1H)-yl]sulfonyl}ethyl)-N-hydroxyformamide] the same measures were 686 nM and greater than 5000 nM.
For the compound `CC(C)c1ccc2c(c1)CCN(S(=O)(=O)CC(C1CC1)N(O)C=O)C2` (stereo not drawn) [Example 85, N-{1-cyclopropyl-2-[(6-isopropyl-3,4-dihydroisoquinolin-2(1H)-yl)sulfonyl]ethyl}-N-hydroxyformamide], the results for the IC50 on gelatinase A (MMP-2) and against human ADAM17 (TACE) were 78 nM and greater than 5000 nM, respectively.
For `O=CN(O)C(CCc1cccnc1)CS(=O)(=O)N1CCc2ccc(Cl)cc2C1` (stereo not drawn) [Example 86, N-(1-{[(7-chloro-3,4-dihydroisoquinolin-2(1H)-yl)sulfonyl]methyl}-3-pyridin-3-ylpropyl)-N-hydroxyformamide], in that order: 21 nM and 59 nM.

Values taken from US7879876B2, “Sulfonamide derivatives and use thereof for the modulation of metalloproteinases” (Merck Serono SA, priority 2005, dated 2011).
